Consider 18 compounds from patent US7906501B2, “Pyrrole derivatives with angiotensin II antagonist activity” (Rottapharm S.p.A., priority 2004, dated 2011).

One data set in a line: in vitro. The note with it: human, Caco-2. The protocol:
(§1) Gres et al. Pharm.; Res. 15 (1998), pages 726-733].
(§2) A→B permeability was thus assessed, namely the apparent permeability coefficient (Papp), of the compounds under investigation, tested at a concentration of 50 μM with an incubation time of 60 minutes, in the apical-to-basolateral direction. B→A permeability is reversely assessed, i.e. in a basolateral-to-apical direction, with an incubation time of 40 minutes.

Another data set has as its system TC7 cell monolayer. In words: in vitro. The note with it: human, Caco-2, 50 μM. The protocol: as §1, §2
Data set [1] deals with renally hypertensive rat (RHR). In words: Reduction in systolic arterial pressure in the RHR rat after I.P. administration. The class given is in vivo. The note with it: for Max. effect at 15 mg/kg (% reduction vs. basal): 0-120 min, systolic pressure; for ED15 (0-120 min): sodium salts, doses 5-20 mg/kg, dose giving 15% reduction in average basal systolic pressure, NC = not calculable, effect < 10% at all doses.

The target in a further data set is T1, AT1 receptor (Rattus norvegicus, UniProt P25095).
T1 construct: from tissue; host or cells: rat liver membranes
T1 sequence (P25095 1-359): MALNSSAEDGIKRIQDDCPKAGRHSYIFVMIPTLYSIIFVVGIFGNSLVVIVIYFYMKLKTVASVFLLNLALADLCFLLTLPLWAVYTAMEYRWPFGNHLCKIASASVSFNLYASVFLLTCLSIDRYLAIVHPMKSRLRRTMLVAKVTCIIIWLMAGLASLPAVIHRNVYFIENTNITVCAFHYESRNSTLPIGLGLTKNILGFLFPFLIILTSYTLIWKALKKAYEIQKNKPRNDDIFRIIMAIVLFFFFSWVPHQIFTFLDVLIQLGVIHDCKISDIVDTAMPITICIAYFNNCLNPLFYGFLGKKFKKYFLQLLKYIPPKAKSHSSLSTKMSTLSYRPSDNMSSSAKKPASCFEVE
In words: Inhibition of [125I]Sar1,Ile8-angiotensin II binding in rat liver membranes. The settings on record: for IC50: rat liver membranes. The protocol:
Antagonist activity at the AT1 receptor on the part of compounds provided by the invention was assessed as the capacity to inhibit binding of the specific AII agonist to rat liver membranes. The method described by R. S. L. Chang et al., [JPET (1992), 262, 133-38] and M. J. Robertson et al., [Br. J. Pharmacol. (1992), 107, 1173-1180] was used with slight modifications. The concentration of radioligand [[…]]-Sar1, Ile^8-angiotensin II used was 25 pM with a membrane content corresponding to a protein concentration of approx. 25 μg of protein per sample; the incubation time was 180 minutes at 25° C. Separation of the bound from the free was carried out by rapid filtration on GFB Millipore glass fibre filters.

Data set [2] deals with spontaneously hypertensive rat (SHR). Briefly: Reduction in systolic arterial pressure in the SHR rat after I.P. administration. It is filed as in vivo. The settings on record: for Max. effect at 15 mg/kg (% reduction vs. basal): 0-120 min, systolic pressure; for ED15 (0-120 min): sodium salts, doses 5-20 mg/kg, dose giving 15% reduction in average basal systolic pressure, NC = not calculable, effect < 10% at all doses.

The mark [3] stands for this setting: displacement of 25 pM [125I]-Sar1,Ile8-angiotensin II, 180 min at 25° C.

The term Papp A→B denotes the apparent permeability from the apical to the basolateral side of a cell layer. A word on the Papp B→A: it is how fast a substance crosses the layer from the basolateral side. Usually melting point stands for the temperature of the solid-liquid transition. As a reminder, the IC50 is the concentration that inhibits the measured activity by half.

Compound `CCCCc1cc(CC(C)C)c(C=O)n1Cc1ccc(-c2ccccc2-c2nnn[nH]2)cc1` [Compound 1, 5-n-Butyl-1-[2′-(1H-tetrazol-5-yl)biphenyl-4-yl-methyl]-3-[3-(2-methyl)propyl]-2-pyrrolaldehyde] returned a melting point of 148 °C. Moreover, in the data set “in vitro”, the Papp A→B at 60 min, 50 μM came to 27.9 ×10⁻⁶ cm/s and the Papp B→A at 40 min, 50 μM came out at 3.4 ×10⁻⁶ cm/s. Besides, the “Ratio (1/2)” value in the data set on TC7 cell monolayer was 8.2. In data set [1], the “Max. effect at 15 mg/kg (% reduction vs. basal)” value is recorded as 22.1 % reduction vs. basal and the “ED15 (0-120 min)” value is 12.6 mg/kg. Further, the “times more potent than the BPT-pyrrole derivative of EP-0323841” value at AT1 receptor (8.9 nM vs. 1.6 μM of compound 277 of EP 0 323 841) is reported as “approx. 200 times”. On AT1 receptor (AT1 binding), this compound registered an IC50 of 8.9 nM. For the same compound, the “times less potent than valsartan and eprosartan in vitro” value on AT1 receptor (respectively vs. valsartan and eprosartan) is on record as “approx. ⅗”. In data set [2], the “Max. effect at 15 mg/kg (% reduction vs. basal)” value amounted to 16.0 % reduction vs. basal and the “ED15 (0-120 min)” value is given as 17.4 mg/kg.
In turn, `CCCc1ccc(C=O)n1Cc1ccc(-c2ccccc2-c2nnn[nH]2)cc1` [Compound 2, 5-n-Propyl-1-[2′-(1H-tetrazol-5-yl)biphenyl-4-yl-methyl]-2-pyrrolaldehyde] gave a melting point of 104 °C. The same compound came in with an IC50 on AT1 receptor (setting [3]) of 72.5 nM.
In turn, `CCCc1c(Br)cc(C=O)n1Cc1ccc(-c2ccccc2-c2nnn[nH]2)cc1` [Compound 3, 4-Bromo-5-n-propyl-1-[2′-(1H-tetrazol-5-yl)biphenyl-4-yl-methyl]-2-pyrrolaldehyde] returned a melting point of 167 °C. Further, the IC50 on AT1 receptor (setting [3]) amounted to 1050 nM.
Taken in the same sequence, the figures for `CCCc1c(Cl)cc(C=O)n1Cc1ccc(-c2ccccc2-c2nnn[nH]2)cc1` [Compound 4, 4-Chloro-5-n-propyl-1-[2′-(1H-tetrazol-5-yl)biphenyl-4-yl-methyl]-2-pyrrolaldehyde] were 150 °C and 615 nM.
As to `CCCc1cc(C(C)C)c(C=O)n1Cc1ccc(-c2ccccc2-c2nnn[nH]2)cc1` [Compound 5, 5-n-Propyl-3-isopropyl-1-[2′-(1H-tetrazol-5-yl)biphenyl-4-yl-methyl]-2-pyrrolaldehyde], the melting point was found to be 180 °C. Besides, the IC50 on AT1 receptor (setting [3]) turned out to be 35.7 nM.
`CCCCc1cc(C(C)C)c(C=O)n1Cc1ccc(-c2ccccc2-c2nnn[nH]2)cc1` [Compound 6, 5-n-Butyl-3-isopropyl-1-[2′-(1H-tetrazol-5-yl)biphenyl-4-yl-methyl]-2-pyrrolaldehyde] returned a melting point of 174 °C. In “in vitro”, this compound had a Papp A→B at 60 min, 50 μM of 15.4 ×10⁻⁶ cm/s and a Papp B→A at 40 min, 50 μM of 1 ×10⁻⁶ cm/s. Besides, the “Ratio (1/2)” value in the data set with TC7 cell monolayer stood at 15.4. In addition, in data set [1], the “Max. effect at 15 mg/kg (% reduction vs. basal)” value amounted to 18.7 % reduction vs. basal and the “ED15 (0-120 min)” value is given as 16.0 mg/kg. In addition, on AT1 receptor (setting [3]), the IC50 was found to be 15.3 nM. Besides, in data set [2], the “Max. effect at 15 mg/kg (% reduction vs. basal)” value is on record as 13.2 % reduction vs. basal and the “ED15 (0-120 min)” value was 19.3 mg/kg.
Regarding `CCCCc1ccc(C=O)n1Cc1ccc(-c2ccccc2-c2nnn[nH]2)cc1` [Compound 7, 5-n-Butyl-1-[2′-(1H-tetrazol-5-yl)biphenyl-4-yl-methyl]-2-pyrrolaldehyde], the melting point was determined as 129 °C. On AT1 receptor (setting [3]), this compound returned an IC50 of 66.5 nM.
For `CCCCCc1cc(C(C)C)c(C=O)n1Cc1ccc(-c2ccccc2-c2nnn[nH]2)cc1` [Compound 8, 5-n-Pentyl-3-isopropyl-1-[2′-(1H-tetrazol-5-yl)biphenyl-4-yl-methyl]-2-pyrrolaldehyde] the same measures were 144 °C and 105 nM.
The compound `CC(C)CCc1cc(C(C)C)c(C=O)n1Cc1ccc(-c2ccccc2-c2nnn[nH]2)cc1` [Compound 9, 5-[(3-Methyl)butyl]-3-isopropyl-1-[2′-(1H-tetrazol-5-yl)biphenyl-4-yl-methyl]-2-pyrrolaldehyde] came in with a melting point of 144 °C. This compound showed an IC50 at AT1 receptor (setting [3]) of 37.2 nM.
For the compound `CCCc1ccc(C(=O)O)n1Cc1ccc(-c2ccccc2-c2nnn[nH]2)cc1` [Compound 10, 5-n-Propyl-1-[2′-(1H-tetrazol-5-yl)biphenyl-4-yl-methyl]-2-pyrrolecarboxylic acid], the melting point worked out at 134 °C. The compound also displayed an IC50 on AT1 receptor (setting [3]) of 475 nM.
Taken in the same sequence, the figures for `CCCc1cc(C(C)C)c(C(=O)O)n1Cc1ccc(-c2ccccc2-c2nnn[nH]2)cc1` [Compound 11, 5-n-Propyl-3-isopropyl-1-[2′-(1H-tetrazol-5-yl)biphenyl-4-yl-methyl]-2-pyrrolecarboxylic acid] were 170 °C and 106 nM.
For `CCCCc1ccc(C(=O)O)n1Cc1ccc(-c2ccccc2-c2nnn[nH]2)cc1` [Compound 12, 5-n-Butyl-1-[2′-(1H-tetrazol-5-yl)biphenyl-4-yl-methyl]-2-pyrrolecarboxylic acid] the same measures were 142 °C and 268 nM.
Consider `CCCc1ccc(CO)n1Cc1ccc(-c2ccccc2-c2nnn[nH]2)cc1` [Compound 13], for which the IC50 at AT1 receptor (setting [3]) turned out to be 444 nM. This lies in the sub-micromolar range.
On to `Cc1ccc(C)n1Cc1ccc(-c2ccccc2-c2nnn[nH]2)cc1` [Compound 14, 2,5-Dimethyl-1-[2′-(1H-tetrazol-5-yl)biphenyl-4-yl-methyl]pyrrole], for which the melting point was determined as 107 °C. The compound further showed an IC50 at AT1 receptor (setting [3]) of 10700 nM.
`CCCc1cc(C(C)C)c(C)n1Cc1ccc(-c2ccccc2-c2nnn[nH]2)cc1` [Compound 15, 2-Methyl-5-n-propyl-3-isopropyl-1-[2′-(1H-tetrazol-5-yl)biphenyl-4-yl-methyl]pyrrole] returned a melting point of 160 °C. In addition, on AT1 receptor (setting [3]), the IC50 stood at 1190 nM.
As to `CCCCc1ncc(/C=C(\Cc2cccs2)C(=O)O)n1Cc1ccc(C(=O)O)cc1` [Eprosartan, eprosartan, reference compound], in the data set “in vitro”, the Papp A→B at 60 min, 50 μM was determined as 0.1 ×10⁻⁶ cm/s and the Papp B→A at 40 min, 50 μM is 0.4 ×10⁻⁶ cm/s. Besides, the “Max. effect at 15 mg/kg (% reduction vs. basal)” value in data set [1] is recorded as 9.2 % reduction vs. basal. In addition, the “Max. effect at 15 mg/kg (% reduction vs. basal)” value in data set [2] amounted to 5.0 % reduction vs. basal.
Turning to `CCCCc1nc(Cl)c(CO)n1Cc1ccc(-c2ccccc2-c2nn[nH]n2)cc1` [Losartan, losartan], the “Max. effect at 15 mg/kg (% reduction vs. basal)” value is recorded as 18.9 % reduction vs. basal in data set [1] and 12.0 % reduction vs. basal in data set [2]. Besides, the figures for the “ED15 (0-120 min)” value in data set [1] and in data set [2] were 16.4 mg/kg and 25.4 mg/kg, respectively.
In “in vitro”, `CCCCC(=O)N(Cc1ccc(-c2ccccc2-c2nnn[nH]2)cc1)[C@H](C(=O)O)C(C)C` [Valsartan, valsartan, reference compound] registered a Papp A→B at 60 min, 50 μM of 0.2 ×10⁻⁶ cm/s and a Papp B→A at 40 min, 50 μM of 0.2 ×10⁻⁶ cm/s. Besides, the “Ratio (1/2)” value with TC7 cell monolayer came to 1.0. In data set [1], the “Max. effect at 15 mg/kg (% reduction vs. basal)” value was determined as 19.0 % reduction vs. basal and the “ED15 (0-120 min)” value is reported as 16.0 mg/kg. Also, the IC50 at AT1 receptor (setting [3]) was 3.4 nM. In data set [2], the “Max. effect at 15 mg/kg (% reduction vs. basal)” value was found to be 14.4 % reduction vs. basal and the “ED15 (0-120 min)” value is given as 26.2 mg/kg.
